Counter-ions that a name gives are not always drawn. Like-named read-outs stand apart in the source and are kept apart here.
Tests used:
[1] = biological target: 5-HT2B receptor (rat stomach fundus) (Rattus norvegicus, UniProt P30994); settings: rat stomach fundus; vs serotonin; ± standard error; read-out: 5-HT2B (Fundus) -log KB (converted);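 further: isometric contraction of isolated male Wistar rat stomach fundus strips, serotonin concentration-response curves after antagonist incubation, KB from dose ratio of agonist potency versus control curve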
rat 5-HT2B receptor = rat 5-HT2B receptor (Rattus norvegicus, UniProt P30994); test: biochemical; assay type: binding;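 further: displacement of [3H]5-HT from membranes of suspension cells carrying cloned rat 5-HT2B receptor, incubated 15 min at 37 °C or 2 h at 0 °C, filter-bound radioactivity counted by scintillation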
[2] = Ki Rat 5-HT2B, [3H]Serotonin; 5-HT2B cells; AVG
[3] = [3H]Serotonin; 5-HT2B cells; AVG; read-out: Ki Rat 5-HT2B

Chain of rat 5-HT2B receptor (P30994 whole entry): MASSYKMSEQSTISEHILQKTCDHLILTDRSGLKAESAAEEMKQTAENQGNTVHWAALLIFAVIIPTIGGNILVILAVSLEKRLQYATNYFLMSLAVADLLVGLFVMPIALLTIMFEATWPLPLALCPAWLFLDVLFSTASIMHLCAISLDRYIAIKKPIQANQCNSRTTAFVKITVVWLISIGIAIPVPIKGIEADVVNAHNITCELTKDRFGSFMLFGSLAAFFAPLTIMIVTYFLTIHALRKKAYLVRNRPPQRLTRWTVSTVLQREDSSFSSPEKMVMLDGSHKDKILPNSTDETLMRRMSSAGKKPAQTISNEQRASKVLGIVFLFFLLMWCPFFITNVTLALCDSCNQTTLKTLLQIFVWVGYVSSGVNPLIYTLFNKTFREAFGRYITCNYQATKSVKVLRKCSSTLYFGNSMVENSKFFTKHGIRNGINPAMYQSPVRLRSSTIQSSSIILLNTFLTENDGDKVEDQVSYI
Chain of 5-HT2B receptor (rat stomach fundus) (P30994 whole entry): as above

| SMILES | Ki (rat 5-HT2B receptor; [2]) [nM] | Ki (rat 5-HT2B receptor; [3]) [nM] | also measured |
| --- | --- | --- | --- |
| CC(C)c1ccc2[nH]c3c(c2c1)CCNC3C(C)c1cccc2ccccc12 (racemic) [Example 50, hydrochloride] |  |  | Kb [1]: 3.98 nM |
| COc1ccc(CC2NCCc3c2[nH]c2ccc(C)cc32)cc1F (stereo not drawn) [Example 34, 6-methyl-1-[(3-fluoro-4-methoxyphenyl)-methyl]-1,2,3,4-tetrahydro-9H-pyrido[3,4-b]indole hydrochloride] |  |  | Kb [1]: 0.38 nM |
| COc1ccc2[nH]c3c(c2c1)CCNC3 | 405 |  |  |
| CN(C)C1CCc2cccc(C(=O)c3ccccc3F)c2C1 (stereo not drawn) |  | 3020 |  |
| CC(C)c1ccc2[nH]c3c(c2c1)CCNC3Cc1cccc2ccccc12 (racemic) [Example 62, (+/-) 6-(1-methylethyl)-1,2,3,4-tetrahydro-1-(1-naphthalenylmethyl)-9H-pyrido [3,4b] indole (Z)-2-butenedioate] |  |  | Kb [1]: 2.63 nM |
| CC(O)C(C)OC(=O)C1CC2c3cccc4c3c(cn4C(C)C)CC2N(C)C1 (stereo not drawn) |  | 6.87 |  |
| COc1cc(CC2NCCc3c2[nH]c2ccc(C)cc32)cc(I)c1OC (stereo not drawn) [Example 29, 6-methyl-1-[(3-iodo-4,5-dimethoxy-phenyl)-methyl]-1,2,3,4-tetrahydro-9H-pyrido[3,4-b]indole] |  |  | Kb [1]: 7.59 nM |
| Cc1c(Br)ccc2c3c([nH]c12)CNCC3 |  | 32.4 |  |
| NCCc1c[nH]c2c(F)ccc(F)c12 | 337 |  |  |
| Brc1ccc2[nH]c3c(c2c1)CCNC3Cc1cccc2ccccc12 (racemic) [Example 55, (±) 6-bromo-1-(1-naphthalenylmethyl)-1,2,3,4-tetrahydro-9H-pyrido [3,4-b]indole (Z)-2-butenedioate] |  |  | Kb [1]: 1.12 nM |
| Brc1cccc2c3c([nH]c12)C(Cc1cccc2ccccc12)NCC3 (racemic) [Example 52, (±) 8-bromo-1-(1-naphthalenylmethyl)-1,2,3,4-tetrahydro-9H-pyrido [3,4-b]indole hydrochloride] |  |  | Kb [1]: ~0.794 nM |
| NCCc1c[nH]c2c(F)cc(F)cc12 | 15.4 |  |  |
| NCCc1c[nH]c2cc(O)c(O)cc12 | 41.6 |  |  |
| NCCc1c[nH]c2ccc(OCc3ccccc3)cc12 | 30.2 |  |  |
| c1ccc2c(CC3NCCc4c3[nH]c3ccc(C5CCCCC5)cc43)cccc2c1 (racemic) [Example 57, (+/-) 6-cyclohexyl-1-(1-naphthalenylmethyl)-1,2,3,4-tetrahydro-9H-pyrido [3,4-b] indole hydrochloride] |  |  | Kb [1]: > 10 nM |
| CCCC(=O)c1cccc2c1CC(NC)CC2 (stereo not drawn) |  | 1500 |  |
| CCCC(=O)c1cccc2c1CC(N(C)C)CC2 (stereo not drawn) |  | 862 |  |
| NCCc1c[nH]c2c1ccc1ccccc12 |  | 155 |  |
| COc1ccc(CC2NCCc3c2[nH]c2c(Br)cc(C)cc32)cc1OC (stereo not drawn) [Example 4, 6-methyl-8-bromo-1-[(3,4-dimethoxyphenyl)-methyl]-1,2,3,4-tetrahydro-9H-pyrido[3,4-b]indole hydrochloride] |  |  | Kb [1]: 1.2 nM |
| COC(=O)c1ccc2[nH]cc(CCN)c2c1 | 49.3 |  |  |
| NCCc1c[nH]c2cc(F)ccc12 | 40.6 |  |  |
| Fc1cccc2c3c([nH]c12)CNCC3 | 25.6 |  |  |
| CC(C)(C)c1ccc2[nH]c3c(c2c1)CCNC3Cc1cccc2ccccc12 (stereo not drawn) |  | 44.9 |  |
| NCCc1c[nH]c2c(F)cccc12 | 62.4 |  |  |

| SMILES | Ki (rat 5-HT2B receptor; [2]) [nM] | Ki (rat 5-HT2B receptor; [3]) [nM] | also measured |
| --- | --- | --- | --- |
| CC(O)C(C)OC(=O)C1CC2c3cccc4[nH]cc(c34)CC2N(C)C1 (stereo not drawn) |  | 12.2 |  |
| COc1ccc(CC2NCCc3c2[nH]c2ccc(C(C)C)cc32)cc1OC (stereo not drawn) [Example 13, 6-(1-methylethyl)-1,2,3,4-tetrahydro-1-[(3,4-dimethoxyphenyl)methyl]-9H-pyrido[3,4b]indole] |  |  | Kb [1]: 3.16 nM |
| NCc1c[nH]c2ccc(Br)cc12 |  |  | Ki (rat 5-HT2B receptor; read-out: Ki Rat 5-HT2B; [3H]Serotonin; 5-HT2B cells; AVG): 39.3 nM |
| Clc1ccc2[nH]c3c(c2c1)CCNC3 [drawing 166] | 70.7 |  |  |
| Cc1ccc2c(c1)c1c(n2C)C(Cc2cccc3ccccc23)NCC1 (racemic) [Example 63, (+/-) 6,9-dimethyl-1,2,3,4-tetrahydro-1-(1-naphthalenylmethyl)-9H-pyrido [3,4-b] indole hydrochloride] |  |  | Kb [1]: 0.813 nM |
| COc1ccc(CC2NCCc3c2[nH]c2c(C)cc(C)cc32)cc1OC (stereo not drawn) [Example 14, 6,8-dimethyl-1,2,3,4-tetrahydro-1-[(3,4-dimethoxyphenyl)methyl]-9H-pyrido[3,4b]indole hydrochloride] |  |  | Kb [1]: 0.245 nM |
| NCCc1c[nH]c2ccc(F)cc12 |  | 5.65 |  |
| NCCc1c[nH]c2ccccc12 |  | 113 |  |
| CCCN(CCC)C1CCc2cccc(O)c2C1 (stereo not drawn) |  | 4120 |  |
| NCCc1c[nH]c2c(Br)cccc12 | 32 |  |  |
| COc1ccc(CC2NCCc3c2[nH]c2c(Br)c(C)ccc32)c(OC)c1OC (stereo not drawn) |  | 8.77 |  |
| CC(N)Cc1c[nH]c2cc(F)ccc12 (stereo not drawn) | 49.9 |  |  |
| c1ccc2c3c([nH]c2c1)CNCC3 | 379 |  |  |
| COc1cc(CC2NCCc3c2[nH]c2ccc(C)cc32)cc(I)c1OC (stereo not drawn) [drawing 153] |  | 4.82 |  |
| CC(C)c1ccc2[nH]c3c(c2c1)CCNC3C(C)c1cccc2ccccc12 (stereo not drawn) |  | 14.2 |  |
| CN(C)CCc1c[nH]c2ccc(OCc3ccccc3)cc12 | 38.5 |  |  |
| COc1ccc(C(C)(C)C2NCCc3c2[nH]c2ccccc32)cc1OC (stereo not drawn) |  | 220 |  |
| CN1CC(C(=O)NCc2cccnc2)CC2c3cccc4[nH]cc(c34)CC21 (stereo not drawn) | 35.1 |  |  |
| CN(C)C1CCc2cccc(C(=O)c3ccccc3)c2C1 (stereo not drawn) |  | 1750 |  |
| NCCc1c[nH]c2ccc(Cl)cc12 |  | 6.21 |  |
| CCN(C)CCc1c[nH]c2ccc(OCc3ccccc3)cc12 | 84.5 |  |  |
| COc1ccc(CC2NCCc3c2[nH]c2ccc(C(C)(C)C)cc32)cc1OC (stereo not drawn) [drawing 148] |  | 39.7 |  |
| Cc1cccc2c3c([nH]c12)CNCC3 |  | 60.1 |  |
| CCCN(CCC)CCc1c[nH]c2ccc(O)cc12 | 61 |  |  |

| SMILES | Ki (rat 5-HT2B receptor; [2]) [nM] | Ki (rat 5-HT2B receptor; [3]) [nM] | also measured |
| --- | --- | --- | --- |
| c1ccc(COc2cccc3c4c([nH]c23)CNCC4)cc1 |  | 5650 |  |
| Cc1ccc2c(CCN)c[nH]c2c1 | 102 |  |  |
| CN1CC(C(=O)NCc2cccnc2)CC2c3cccc4c3c(cn4C)CC21 (stereo not drawn) | 15.5 |  |  |
| Brc1ccc2[nH]c3c(c2c1)CCNC3 [drawing 170] | 62.1 |  |  |
| COc1ccc2cccc(N3CCNCC3)c2c1 | 3.58 |  |  |
| CCC(CO)NC(=O)C1C=C2c3cccc4c3c(cn4C)CC2N(C)C1 (stereo not drawn) | 6.28 |  |  |
| Cc1ccc2[nH]cc(CCN)c2c1 |  | 32.8 |  |
| NCCc1c[nH]c2c(O)cc(O)cc12 | 4570 |  |  |
| COc1ccc(CC2NCCc3c2[nH]c2ccc(C4CCCCC4)cc32)cc1OC (stereo not drawn) [drawing 149] |  | 1460 |  |
| COc1ccc(CC2NCCc3c2[nH]c2ccc(-c4ccccc4)cc32)cc1OC (stereo not drawn) |  | 229 |  |
| CC(C)n1cc(CCN)c2cc(Br)ccc21 |  | 475 |  |
| CCCCC(=O)c1cccc2c1CC(N(C)C)CC2 (stereo not drawn) |  | 936 |  |
| CN1CC(C(=O)NCCc2ccccn2)CC2c3cccc4c3c(cn4C)CC21 (stereo not drawn) | 24.5 |  |  |
| Cc1c(Br)ccc2c(CCN)c[nH]c12 | 20.8 |  |  |
| Fc1ccc2[nH]c3c(c2c1)CCNC3 |  | 322 |  |
| CCCCC(=O)c1cccc2c1CC(NC)CC2 (stereo not drawn) |  | 5150 |  |
| Cc1ccc2c3c([nH]c2c1)CNCC3 |  | 78.5 |  |
| Cc1[nH]c2ccc(O)cc2c1CCN |  | 284 |  |
| CCCNCCc1c[nH]c2ccc(Br)cc12 | 131 |  |  |
| CCCc1ccc2[nH]c3c(c2c1)CCNC3Cc1ccc(OC)c(OC)c1 (stereo not drawn) |  | 28.4 |  |
| Cc1cc(Br)c2[nH]cc(CCN)c2c1 | 37.6 |  |  |
| CC(N)Cc1c[nH]c2ccc(F)cc12 (stereo not drawn) | 6.52 |  |  |
| CCCN(CCC)CCc1c[nH]c2ccc(OC)cc12 | 169 |  |  |
| Cc1ccc2[nH]c3c(c2c1F)CCNC3Cc1cccc2ccccc12 (stereo not drawn) |  | 4.38 |  |

Reference: patent US5688807A, “Method for treating 5HT2B receptor related conditions” (Eli Lilly and Company, priority 1995, dated 1997)
